Laboratory results: patent publication US20250290045A1, “SMALL MOLECULES AND METHODS FOR MODULATING TEMPORAL CONTROL OF GELATION AND HYDROGEL MECHANICS” (The Board of Trustees of the Leland Stanford Junior …, priority 2022, published 2025)
Where “and” joins values, the source holds several entries; their conditions need not be identical. Equal entries are not always repeated. Entries after “also recorded” stand apart in the source; their conditions may differ.

Experiments:
[1] = Storage modulus of HELP hydrogel with competitor, oscillatory shear rheology; format: physicochemical; conditions: for HELP modulus: 0 mM control ~3 kPa; for storage modulus (G) of HELP hydrogel, dose response: FIG. 11C, D, increasing competitor concentration, n=3; for fold change in modulus: HELP system, relative to no competitor
Experimental: The term “storage modulus” as used herein may be used interchangeably with the term “stiffness”. Storage modulus refers to the ratio of the elastic stress to strain and indicates a material's ability to store energy. The storage modulus may be measured using oscillatory shear rheology
The storage modulus of the HELP hydrogels were measured using oscillatory shear rheology.
The HELP hydrogel composition was 1 wt % ELP-Hydrazine (fully modified) and 1 wt % HA-Aldehyde (12% modified). Hydrazinoacetic acid was added to HELP hydrogels in four separate final concentrations, 0 mM, 5 mM, 10 mM and 20 mM and the storage modulus was measured over the course of 30 minutes.
The catalyst agent was 2-(Aminomethyl)benzimidazole and the competitor agent was butyraldehyde. The competitor agent was added at HELP hydrogels at a final concentration of 10 mM and the catalyst agent was added to a final concentration of 0.10 and 25 mM. The composition of the HELP hydrogel was 2 wt % ELP-Hydrazine (fully modified) and 1 wt % HA-Benzaldehyde (30% modified).
To initially assess the impact of a competitor on hydrogel stiffness, it was proposed that the effect on crosslinking density will depend upon the relative strength of the two competing reactions: (1) crosslinking-site and competitor and (2) crosslinking reaction (FIG. 11A). It was predict that as the relative strength of the competitor reaction (Keq^1) to crosslinking reaction (Keq^2) increases, there will be a greater disruption of crosslinks. To validate this, the impact of competitor Keq on the modulus of HELP formed from precursor solutions of HA-BZA and ELP-HYD at a 1:1 BZA to HYD ratio was determined. To minimize off-target reactions, competitors were added to the precursors solution that has the same functionality, i.e., hydrazine competitors added to ELP-HYD, aldehyde competitors added to HA-BZA. At 10 mM of competitor, which represents a ratio of 4:3 of competitor to crosslinking sites, all competitors led to a significant decrease in the HELP modulus compared to the 0 mM control (FIG. 11B). Based upon the hypothesis that the relative strength of the reactions will dictate crosslinking disruption, a larger decrease in modulus with competitors that result in an aromatic hydrazone (Keq^1/Keq^2˜10^0), double aromatic hydrazone (Keq^1/Keq^2˜10^1) and alkyl hydrazone (Keq^1/Keq^2˜10^2) should be seen.
The hydrogel modulus response to increasing concentrations of competitors was next examined. The decrease in modulus is dependent upon the concentration of the competitor. To examine this dose-dependent response, the competitors with the lowest (HydAA, aromatic hydrazone) and highest (Butanal, alkyl hydrazone) Keq were selected. Increasing the concentration of HydAA from 5, 10, and 20 mM further reduced the crosslinking density and modulus (2.3, 1.8, 1.3 kPa) in a concentration dependent manner (FIG. 11C). A similar response with Butanal was seen as we increase the concentration from 5 to 10 mM (FIG. 11D).

[2] = Hydrazone reaction rates of competitors with model reactants, UV spectroscopy; format: physicochemical; conditions: for k1 (forward reaction rate) / k−1 (×10^−4) (reverse reaction rate): 50 μM competitor and 50 μM model reactant (BZA or HydAA), saline solution, 25° C., mean (standard deviation), n = 4; for k−1 / k1: unit not given
Experimental: To quantify the extent that side groups impact reaction parameters, the forward (k1) and reverse (k−1) reaction rates were measured for each competitor at 50 μM (Table 2). For these reactions, the complementary reactant was chosen to be 50 μM of either benzaldehyde (BZA) or hydrazinoacetic acid (HydAA), because they are the crosslinking functionalities of HELP, and can provide key insight into DCC interactions without the complexity of the full HA and ELP polymers. (Winne, Leibler et al. 2019) The formation of a hydrazone bond was observed via absorbance with UV spectroscopy and converted to a concentration over time. An analytical solution to a second order reaction rate, assuming equal concentrations of reactants, was fit to the concentration as a function of time. (Dirksen, Dirksen et al. 2006, Mckinnon, Domaille et al. 2014)

[3] = Theoretical half-time to equilibrium of the competitor reaction; conditions: 10 mM; calculated from kinetic reaction parameters
Experimental: Using the kinetic reaction parameters, the theoretical half-time (t1/2) to was calculated to reach equilibrium of the competitor reaction at a concentration of 10 mM (FIG. 12C). […] This is consistent with the rationale that Butanal increases the gelation time because it is capable of rapidly reacting with the crosslinking sites, preventing them from participating in gelation. […] Using a simplified half-time model of just the competitor reaction, the user is able to qualitatively capture the measured gelation times of the complex competitor and crosslinking hydrogel system.

[4] = Gelation time of HELP hydrogel with competitor; format: physicochemical; conditions: for gelation time: 0 mM 42.3±5.5 s; for effect on gelation time of HELP hydrogel: FIG. 12A, B, n=3-4, one-way ANOVA
Experimental: The HELP hydrogel composition was 2 wt % ELP-Hydrazine (fully modified) and 1 wt % HA-Benzaldehyde (30% modified).
Based upon the observed and predicted effect of the competitor on hydrogel modulus, it was reasoned that transient disruption of crosslinking would alter gelation kinetics. The competitor kinetics delays the time to reach a percolated polymer network in a dose-dependent manner. Addition of a high concentration (20 mM) of a relatively slow reacting competitor Keq competitor (HydAA, k1˜10^−1, Keq˜ 10^3) results in a modest and nonsignificant increase in gelation time (tg=48.3±3.1 s), though it softened the hydrogel modulus from ˜3 kPa to 1.3 kPa. (FIG. 12A). […] The difference in gelation times can be attributed to the difference in forward reaction rate and equilibrium constants of the competitors, which both differ by over 2 orders of magnitude between Butanal and HydAA.

[5] = HELP hydrogel homogeneity by fluorescent dye distribution; format: physicochemical; conditions: 10 mM competitor vs rapidly gelling HELP without competitor; stiff (~3.5 kPa) HELP
Experimental: We propose that by using a competitor to increase gelation times, we can overcome the limitations of rapidly gelling hydrazone-crosslinked HELP. We compared the macroscopic structure of a stiff (˜3.5 kPa) HELP formulation with and without Butanal. Without a competitor, the hydrogel rapidly gelled, resulting in a heterogenous hydrogel with nonuniform distribution of polymer. However, addition of 10 mM Butanal allowed for adequate mixing of the polymers and a homogenous hydrogel (FIG. 12E). To quantitatively evaluate the heterogeneity of HELP hydrogels with or without a competitor, we added a fluorescent dye and compared the spatial distribution of the fluorescent signal. […] By using a rapidly reaction competitor to slow down gelation kinetics, we have developed a solution to the challenge of inhomogeneous DCC hydrogels, and produced a uniform HELP hydrogel.

[6] = 10 mM competitor, HA-BZA and ELP-HYD at 1:1 BZA to HYD

| Compound | k1 (forward reaction rate) [2] | k−1 (×10^−4) (reverse reaction rate) [2] | theoretical half-time (t1/2) to reach equilibrium of the competitor reaction [3] [min] | k−1 [2] | HELP modulus ([1]; 5 mM competitor) [kPa] | HELP modulus [1, 6] [kPa] | storage modulus (G) of HELP hydrogel, dose response [1] | fold change in modulus [1] [fold] | gelation time ([4]; 10 mM competitor) | effect on gelation time of HELP hydrogel [4] | k1 [2] | other results |
| --- | --- | --- | --- | --- | --- | --- | --- | --- | --- | --- | --- | --- |
| NCc1nc2ccccc2[nH]1 [2-(Aminomethyl)benzimidazole] |  |  |  |  |  |  |  |  |  |  |  | storage modulus of HELP hydrogels with catalyst and competitor ([1]; FIG. 9, catalyst 0.10 and 25 mM with 10 mM butyraldehyde, 24 hours diffusion into preformed hydrogel, 2 wt % ELP-Hydrazine, 1 wt % HA-Benzaldehyde (30% modified)): reduced in a dose-dependent manner |
| O=Cc1ccccc1 [Benzaldehyde, benzaldehyde] | 0.276 (0.070) M^−1 s^−1 | 1.71 (0.280) ×10^−4 s^−1 | 4.23 ± 1.33 |  |  |  |  |  |  |  |  |  |
| CCCC=O [Butyraldehyde, butyraldehyde] | 59.9 (5.49) M^−1 s^−1 | 4.49 (1.07) ×10^−4 s^−1 | 0.0265 ± 0.00233 | 4.49±1.07×10^−4 | 1.75 | 0.29±0.2 | dose-dependent decrease | 0.1 | 92.3 ± 5.1 s | significantly increases gelation time in a dose-dependent manner |  | k1 ([2]; listed as Butanal): 59.9±5.49; k1 ([2]; listed as Butunal): ~10^1; HELP hydrogel formation ([1]; 20 mM competitor (2.7× crosslinking sites), listed as Butanal): disrupt formation of a hydrogel; also recorded: inhibition of HELP gel formation; increase of gelation time ([4]; 5 mM competitor): ~1.7 fold; gelation time ([4]; 5 mM competitor): 74.8 ± 10.0 s; variance of fluorescence intensity (hydrogel heterogeneity) [5]: significantly lower variance |
| NNCC(=O)O [Hydrazinoacetic acid, hydrazinoacetic acid] | 0.276 (0.070) M^−1 s^−1 | 1.71 (0.280) ×10^−4 s^−1 | 4.23 ± 1.33 | ~10^−4 | 2.3 |  | dose-dependent decrease | 0.6 | did not significantly impact gelation | does not significantly increase | ~10^−1 | HELP modulus ([1]; 10 mM competitor, HA-BZA and ELP-HYD at 1:1 BZA to HYD, listed as HydAA): 1.75±0.3 kPa and 1.8 kPa and 1.75 kPa; HELP modulus ([1]; 20 mM competitor): 1.3 kPa; storage modulus of HELP hydrogels, dose response ([1]; FIG. 2, 0, 5, 10 and 20 mM): reduced the storage modulus in a dose dependent manner; time to reach the plateau storage modulus ([1]; FIG. 3, 1 wt % ELP-Hydrazine, 1 wt % HA-Aldehyde (12% modified), 0, 5, 10, 20 mM): increased the time to reach the plateau storage modulus; storage modulus of HELP hydrogels over time ([1]; FIG. 3, 1 wt % ELP-Hydrazine, 1 wt % HA-Aldehyde (12% modified), 0, 5, 10, 20 mM, 30 minutes): reduced the storage modulus of HELP hydrogels in a dose dependent manner; gelation time (tg) ([4]; 20 mM HydAA (slow-reacting competitor)): 48.3 ± 3.1 s; gelation time, dose response ([4]; FIG. 4, 0, 5, 10 mM, 2 wt % ELP-Hydrazine, 1 wt % HA-Benzaldehyde (30% modified)): increased the gelation time in a dose dependent manner; increase of gelation time ([4]; FIG. 4, 10 mM, 2 wt % ELP-Hydrazine, 1 wt % HA-Benzaldehyde (30% modified)): approximately 30 seconds |
| NNc1ccc(C(=O)O)cc1 [Hydrazinobenzoic acid, 4-hydrazinobenzoic acid] | 2.10 (0.40) M^−1 s^−1 | 1.00 (0.077) ×10^−4 s^−1 |  | 1.00±0.077×10^−4 |  | 0.86±0.04 |  |  |  |  | 2.10±0.400 |  |
| NNCCO [Hydrazinoethanol, 2-hydrazinoethanol] | 0.690 (0.301) M^−1 s^−1 | 1.12 (0.469) ×10^−4 s^−1 |  | ~10^−4 |  |  |  |  |  |  | ~10^−1 |  |
